In ChEMBL document CHEMBL1201862, “PubChem BioAssay data set” (2004):
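All cell lines were grown in 96-well plates and treated with compound for 48 hours. Abbreviation: GI50, concentration required for 50% inhibition of growth.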 Calls of active or inactive are those of the source. Cut-off read from the data, not from the text of the source: active = GI50 up to about 1.1 µM and inactive = higher.

Columns and labels:
Experiment in all cases: inhibition of tumour cell growth, NCI panel, 48 h
[1] = tested on: A549
[2] = tested on: BT-549
[3] = tested on: EKVX
[4] = tested on: HCT-15
[5] = tested on: HL-60
[6] = tested on: IGROV-1
[7] = tested on: K562
[8] = tested on: KM12
[9] = tested on: MDA-MB-231
[10] = tested on: MDA-MB-435
[11] = tested on: MDA-N
[12] = tested on: MOLT-4
[13] = tested on: Malme-3M
[14] = tested on: NCI-H226
[15] = tested on: NCI-H23
[16] = tested on: NCI/ADR-RES
[17] = tested on: OVCAR-4
[18] = tested on: OVCAR-8
[19] = tested on: SF-268
[20] = tested on: UACC-257

| SMILES | GI50 [1] | GI50 [2] | GI50 [3] | GI50 [4] [µM] | GI50 [5] | GI50 [6] | GI50 [7] | GI50 [8] | GI50 [9] | GI50 [10] | GI50 [11] | GI50 [12] | GI50 [13] | GI50 [14] | GI50 [15] | GI50 [16] | GI50 [17] | GI50 [18] | GI50 [19] | GI50 [20] |
| --- | --- | --- | --- | --- | --- | --- | --- | --- | --- | --- | --- | --- | --- | --- | --- | --- | --- | --- | --- | --- |
| CCON=C1C(C)(C)C(C)(C)C(C)(C)C1(C)C | > 100 µM (inactive) | > 100 µM (inactive) | > 100 µM (inactive) | > 100 | > 100 µM (inactive) | > 100 µM (inactive) | > 100 µM (inactive) | > 100 µM (inactive) | > 100 µM (inactive) | > 100 µM (inactive) | > 100 µM (inactive) | > 100 µM (inactive) | > 100 µM (inactive) | > 100 µM (inactive) | > 100 µM (inactive) | > 100 µM (inactive) | > 100 µM (inactive) | > 100 µM (inactive) | > 100 µM (inactive) | > 100 µM (inactive) |
| Cc1nc(SCC(=O)Nc2ccc(Cl)cc2)c2sc(=S)n(-c3ccccc3)c2n1 | > 10 µM (inactive) | > 10 µM (inactive) | > 10 µM (inactive) | > 10 | > 10 µM (inactive) | > 10 µM (inactive) | 6.41 µM (inactive) | > 10 µM (inactive) | > 10 µM (inactive) | > 10 µM (inactive) | > 10 µM (inactive) | > 10 µM (inactive) | > 10 µM (inactive) | > 10 µM (inactive) | > 10 µM (inactive) | > 10 µM (inactive) | > 10 µM (inactive) | > 10 µM (inactive) | > 10 µM (inactive) | > 10 µM (inactive) |
| CN(Cc1cnc2nc(N)nc(N)c2n1)c1ccc(C(=O)NCCS(=O)(=O)O)cc1 | > 100 µM (inactive) | > 100 µM (inactive) | > 100 µM (inactive) | > 100 | > 100 µM (inactive) | > 100 µM (inactive) | > 100 µM (inactive) | > 100 µM (inactive) | > 100 µM (inactive) | > 100 µM (inactive) | > 100 µM (inactive) | > 100 µM (inactive) | > 100 µM (inactive) | > 100 µM (inactive) | > 100 µM (inactive) | > 100 µM (inactive) | > 100 µM (inactive) | > 100 µM (inactive) | > 100 µM (inactive) | > 100 µM (inactive) |
| O=C1c2cc([N+](=O)[O-])sc2C(=O)c2c([N+](=O)[O-])csc21 | 1.9 µM (inactive) | 0.802 µM (active) | 1.48 µM (inactive) | 0.482 | 0.0382 µM (active) | 0.4 µM (active) | 0.116 µM (active) | 1.24 µM (inactive) | 0.551 µM (active) | 0.168 µM (active) | 0.189 µM (active) | 0.229 µM (active) | 0.274 µM (active) | 1.52 µM (inactive) | 0.711 µM (active) | 1.48 µM (inactive) | 0.64 µM (active) | 0.785 µM (active) | 0.708 µM (active) | 0.386 µM (active) |
| COC(=O)c1ccccc1C1CN=NC12Cc1cc(C)cc(C)c1C2=O (stereo not given) | 45.5 µM (inactive) | 63.4 µM (inactive) | 70 µM (inactive) | 17.3 | 22 µM (inactive) | > 100 µM (inactive) | 40.5 µM (inactive) | 29.9 µM (inactive) | 14.4 µM (inactive) | 36.4 µM (inactive) | 57 µM (inactive) | 32.1 µM (inactive) | 97.9 µM (inactive) | 99.3 µM (inactive) | 15.1 µM (inactive) | 38.4 µM (inactive) | 65.3 µM (inactive) | > 100 µM (inactive) | > 100 µM (inactive) | 34 µM (inactive) |
| Cn1cnc([N+](=O)[O-])c1[Se]c1nc(N)nc2c1ncn2C1OC(CO)C(O)C1O (stereo not given) | > 100 µM (inactive) | > 100 µM (inactive) | > 100 µM (inactive) | > 100 | > 100 µM (inactive) | > 100 µM (inactive) | > 100 µM (inactive) | > 100 µM (inactive) | > 100 µM (inactive) | > 100 µM (inactive) | > 100 µM (inactive) | > 100 µM (inactive) | > 100 µM (inactive) | > 100 µM (inactive) | > 100 µM (inactive) | > 100 µM (inactive) | > 100 µM (inactive) | > 100 µM (inactive) | > 100 µM (inactive) | > 100 µM (inactive) |
